Consider two molecules from patent publication US6951833B2, “Anti-microbial compositions” (priority 2002, dated 2005).

For orientation: LD50 means the dose at which mortality reaches 50%.

The nature of data set [1]: LD50 in a mouse. To be noted: in vivo, read-out: dosage reaching the LD50 limit. The source says: The upper limit of the amount of the composition of the present invention will depend upon how the extract is made and may be determined by the levels at which toxicity or irritation becomes an issue. Thus, for surface cleansers, very high concentrations can be employed, whereas for skin cleansers, oral care or other products used for direct contact with humans or animals, lower concentrations will be desirable to avoid irritation or toxicity issues. […] Use of the term, “safe amount” herein refers to concentrations which are sufficiently below the above-mentioned amounts to avoid toxic effects in humans or animals.

Data set [2] relates to a variety of common bacteria. As to the kind of experiment: bactericidal amounts for common bacteria. It is filed as cell-based. The source says:
The composition of the present invention is preferably used in amounts that deliver at least about 2 ppm of anemonin, protoanemonin, diterpenoid alkaloids, or combinations thereof, more preferably, at least about 5 ppm of anemonin, protoanemonin, diterpenoid alkaloids, or combinations thereof, and most preferably at least about 15 ppm of anemonin, protoanemonin, diterpenoid alkaloids, or combinations thereof.

`O=C1C=CC2(CCC23C=CC(=O)O3)O1` (stereo not drawn) [anemonin]: the LD50 in data set [1] is 150 mg/kg.
With `C=C1C=CC(=O)O1` [protoanemonin], in data set [1], the LD50 is 190 mg/kg. For the same molecule, in data set [2], the “amount that is generally bactericidal” value is 25-200 ppm.
